This note sets out measurements from EP4273147A1, “SUBSTITUTED SPIROLACTAMS, SALTS THEREOF AND THEIR USE AS HERBICIDALLY ACTIVE SUBSTANCES” (Bayer Aktiengesellschaft, priority 2022, dated 2023).

The subject of data set [1] is ECHCG. The experiment in a line: Herbicidal pre-emergence action (Table A2). Particulars: application rate 320 g/ha; visual grading after ca. 3 weeks. It counts as in vivo, Echinochloa crus-galli. In short, it runs like this: (§1)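 Double sowing per pot (1 monocot + 1 dicot weed species), sandy loam substrate, seeds covered with soil.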
Data set [2] relates to LOLRI. The data set can be described thus: Herbicidal pre-emergence action (Table A3). Particulars: visual grading after ca. 3 weeks. The class given is in vivo, Lolium rigidum. In short, it runs like this: as §1
The test system of data set [3] is SETVI. The data set can be described thus: Herbicidal pre-emergence action (Table A5). It counts as in vivo, Setaria viridis. Particulars: visual grading after ca. 3 weeks. The method, boiled down: as §1
In data set [4] the test system is POAAN. The data set can be described thus: Herbicidal pre-emergence action (Table A7). The class given is in vivo, Poa annua. In short, it runs like this:
as §1

Data set [5] relates to ALOMY. The data set can be described thus: Herbicidal post-emergence action (Table B2). It counts as in vivo, Alopecurus myosuroides. To be noted: application rate 1280 g/ha; rated visually after about 3 weeks. On the procedure:
(§2) Seeds of mono- and dicotyledonous weed plants were placed in plastic pots in sandy loam soil (doubly sown with in each case one species of mono- or dicotyledonous weed plants per pot), covered with soil and cultivated in a greenhouse under controlled growth conditions. 2 to 3 weeks after sowing, the test plants were treated at the one-leaf stage. […] After the test plants had been kept in the greenhouse under optimum growth conditions for about 3 weeks, the activity of the preparations was rated visually in comparison to untreated controls. For example, 100% activity = the plants have died, 0% activity = like control plants.

Data set [6] concerns POAAN. The data set can be described thus: Herbicidal post-emergence action (Table B7). To be noted: application rate 1280 g/ha. The class given is in vivo, Poa annua. The method, boiled down:
(§3)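 Greenhouse post-emergence screen on potted weeds in sandy loam, treatment at one-leaf stage, visual % control scored ~3 weeks later against untreated plants.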

The test system of data set [7] is VERPE. The experiment in a line: Herbicidal post-emergence action (Table B10). The class given is in vivo, Veronica persica. In short, it runs like this: as §3
Data set [8] has as its system MATIN. The experiment in a line: Herbicidal pre-emergence action (Table A4). The class given is in vivo, Matricaria inodora. To be noted: application rate 1280 g/ha; visual grading after ca. 3 weeks. The method, boiled down:
as §1

Data set [9] concerns ALOMY. The experiment in a line: Herbicidal pre-emergence action (Table A9). It counts as in vivo, Alopecurus myosuroides. Particulars: application rate 1280 g/ha; visual grading after ca. 3 weeks. In short, it runs like this: as §1
Data set [10] relates to ECHCG. The data set can be described thus: Herbicidal post-emergence action (Table B3). The class given is in vivo, Echinochloa crus-galli. To be noted: rated visually after about 3 weeks. The method, boiled down: as §3
Data set [11] concerns SETVI. The experiment in a line: Herbicidal post-emergence action (Table B8). The class given is in vivo, Setaria viridis. Particulars: application rate 320 g/ha. The method, boiled down: as §3
Data set [12] relates to STEME. The experiment in a line: Herbicidal pre-emergence action (Table A6). It counts as in vivo, Stellaria media. To be noted: application rate 320 g/ha; visual grading after ca. 3 weeks. The method, boiled down:
as §1

Data set [13] concerns DIGSA. The data set can be described thus: Herbicidal pre-emergence action (Table A12). The class given is in vivo, Digitaria sanguinalis. To be noted: application rate 320 g/ha; visual grading after ca. 3 weeks. The method, boiled down: as §1
Data set [14] concerns LOLRI. The experiment in a line: Herbicidal post-emergence action (Table B5). To be noted: application rate 1280 g/ha; rated visually after about 3 weeks. It counts as in vivo, Lolium rigidum. The procedure: as §2
For data set [15], the system named is MATIN. The experiment in a line: Herbicidal post-emergence action (Table B6). Particulars: application rate 1280 g/ha; rated visually after about 3 weeks. It counts as in vivo, Matricaria inodora. The method, boiled down:
as §3

In data set [16] the test system is ALOMY. The experiment in a line: Herbicidal pre-emergence action, section C (Table C2). It counts as in vivo, Alopecurus myosuroides. Particulars: application rate 320 g/ha; visual grading after ca. 3 weeks.
Data set [17] deals with DIGSA. The data set can be described thus: Herbicidal pre-emergence action, section C (Table C5). To be noted: application rate 80 g/ha; visual grading after ca. 3 weeks. It counts as in vivo, Digitaria sanguinalis.
Data set [18] has as its system ECHCG. The data set can be described thus: Herbicidal pre-emergence action, section C (Table C6). Particulars: application rate 80 g/ha; visual grading after ca. 3 weeks. It counts as in vivo, Echinochloa crus-galli.
Data set [19] has as its system LOLRI. The experiment in a line: Herbicidal pre-emergence action, section C (Table C7). It counts as in vivo, Lolium rigidum. To be noted: application rate 320 g/ha; visual grading after ca. 3 weeks.
The subject of data set [20] is SETVI. The data set can be described thus: Herbicidal pre-emergence action, section C (Table C10). The class given is in vivo, Setaria viridis. To be noted: application rate 320 g/ha; visual grading after ca. 3 weeks.
Data set [21] has as its system VERPE. The experiment in a line: Herbicidal pre-emergence action, section C (Table C11). To be noted: application rate 320 g/ha; visual grading after ca. 3 weeks. The class given is in vivo, Veronica persica.
Data set [22] has as its system VIOTR. The data set can be described thus: Herbicidal pre-emergence action, section C (Table C12). The class given is in vivo, Viola tricolor. To be noted: application rate 80 g/ha; visual grading after ca. 3 weeks.
In data set [23] the test system is ZEAMX. The experiment in a line: Pre-emergence effects on crop plants (Table D1). It counts as in vivo, Zea mays. To be noted: crop plant; application rate 320 g/ha; visual grading after ca. 3 weeks.
Data set [24] relates to GLXMA. The experiment in a line: Pre-emergence effects on crop plants (Table D4). It counts as in vivo, Glycine max. To be noted: crop plant; application rate 320 g/ha; visual grading after ca. 3 weeks.
Data set [25] has as its system BRSNW. The data set can be described thus: Pre-emergence effects on crop plants (Table D5). To be noted: crop plant; application rate 80 g/ha; visual grading after ca. 3 weeks. It counts as in vivo, Brassica napus.
Data set [26] has as its system VERPE. The experiment in a line: Herbicidal post-emergence action, section E (Table E9). To be noted: application rate 320 g/ha; assessed visually after ca. 3 weeks. The class given is in vivo, Veronica persica. An excerpt: (§4) 2 to 3 weeks after sowing, the test plants were sprayed in the single-leaf stage.
In data set [27] the test system is VIOTR. The data set can be described thus: Herbicidal post-emergence action, section E (Table E10). To be noted: application rate 320 g/ha; assessed visually after ca. 3 weeks. The class given is in vivo, Viola tricolor.
From the text: as §4

Data set [28] relates to ZEAMX. The data set can be described thus: Post-emergence effects on crop plants (Table F1). To be noted: application rate 320 g/ha, crop plant ZEAMX. The class given is in vivo, Zea mays.
From the text: as §4

Data set [29] relates to TRZAS. The data set can be described thus: Post-emergence effects on crop plants (Table F2). It counts as in vivo, Triticum aestivum. Particulars: application rate 320 g/ha, crop plant TRZAS.
From the text: as §4

Data set [30] deals with ORYZA. The data set can be described thus: Post-emergence effects on crop plants (Table F3). It counts as in vivo, Oryza sativa. Particulars: application rate 320 g/ha, crop plant ORYZA.
From the text: as §4

Data set [31] deals with GLXMA. The data set can be described thus: Post-emergence effects on crop plants (Table F4). It counts as in vivo, Glycine max. Particulars: application rate 320 g/ha, crop plant GLXMA.
From the text: as §4

In data set [32] the test system is ORYZA. The data set can be described thus: Pre-emergence effects on crop plants (Table D3). Particulars: crop plant; application rate 80 g/ha; visual grading after ca. 3 weeks.
The mark [33] stands for this setting: application rate 320 g/ha, visual grading after ca. 3 weeks.

Regarding `O=C1N(Cc2ccccc2F)CCCC12CCCN(Cc1ccccc1Br)C2=O` (racemic) [I-042], in data set [1], the “pre-emergence activity against ECHCG” value was determined as 100%. Also, in [2] (application rate 1280 g/ha), the “pre-emergence activity against LOLRI” value came to 100%. Also, the “pre-emergence activity against SETVI” value in data set [3] (application rate 320 g/ha) is recorded as 90%. Further, in data set [4] (setting [33]), the “pre-emergence activity against POAAN” value is recorded as 100%. Besides, the “post-emergence activity against ALOMY” value in [5] is 90%. Besides, in [6], the “post-emergence activity against POAAN” value was 90%. Moreover, in [7] (application rate 1280 g/ha), the “post-emergence activity against VERPE” value is recorded as 90%.

`O=C1N(Cc2ccccc2Cl)CCCC12CCCN(Cc1cccc(F)c1F)C2=O` (racemic) [I-018]: the “pre-emergence activity against ECHCG” value in data set [1] is recorded as 100%. Moreover, the “pre-emergence activity against LOLRI” value in [2] (application rate 320 g/ha) is given as 100%. Further, the “pre-emergence activity against MATIN” value in [8] is 90%. The “pre-emergence activity against SETVI” value in [3] (application rate 320 g/ha) is listed as 90%. In data set [4] (pre-emergence, 1290 g/ha, 504 h), the “pre-emergence activity against POAAN” value is on record as 100%. In addition, the “pre-emergence activity against ALOMY” value in data set [9] was 90%. The “post-emergence activity against ALOMY” value in data set [5] came to 90%. The “post-emergence activity against ECHCG” value in [10] (application rate 320 g/ha) amounted to 90%. For the same compound, in [11], the “post-emergence activity against SETVI” value is 90%. In addition, in data set [7] (application rate 320 g/ha), the “post-emergence activity against VERPE” value came out at 90%.

Regarding `O=C1N(Cc2ccccc2Cl)CCC12CCCN(Cc1c(F)cccc1F)C2=O` (racemic) [I-045], the “pre-emergence activity against LOLRI” value in data set [2] (application rate 1280 g/ha) was 100%; in data set [19] it was 90%. Besides, the “pre-emergence activity against MATIN” value in [8] was 90%. The “pre-emergence activity against SETVI” value in data set [3] (application rate 1280 g/ha) and in data set [20] was 100% throughout. In addition, in data set [12], the “pre-emergence activity against STEME” value worked out at 90%. The “pre-emergence activity against POAAN” value in data set [4] (setting [33]) came out at 100%. The figures for the “pre-emergence activity against ALOMY” value in data set [9] and in data set [16] were 90% and 100%, respectively. Further, the “pre-emergence activity against DIGSA” value in data set [13] worked out at 90%; in data set [17], 80%. In addition, the “post-emergence activity against ECHCG” value in data set [10] (application rate 1280 g/ha) was 90%. The “post-emergence activity against LOLRI” value in [14] stood at 90%. In addition, the “post-emergence activity against MATIN” value in data set [15] is reported as 90%. The “post-emergence activity against POAAN” value in data set [6] was 90%. In addition, in [18], the “pre-emergence activity against ECHCG” value turned out to be 90%. Further, in [21], the “pre-emergence activity against VERPE” value is recorded as 80%. For the same compound, the “pre-emergence activity against VIOTR” value in data set [22] turned out to be 90%. Also, in data set [23], the “pre-emergence activity against ZEAMX” value was 0%. The “pre-emergence activity against GLXMA” value in data set [24] is given as 0%. The “pre-emergence activity against BRSNW” value in data set [25] is 0%. Moreover, the “post-emergence activity against VERPE” value in [26] is recorded as 80%. Further, in [27], the “post-emergence activity against VIOTR” value is 80%. In addition, the “post-emergence activity against ZEAMX” value in [28] worked out at 0%. The “post-emergence activity against TRZAS” value in data set [29] was 0%. The “post-emergence activity against ORYZA” value in data set [30] turned out to be 0%. Besides, in data set [31], the “post-emergence activity against GLXMA” value turned out to be 0%. In data set [32], the “pre-emergence activity against ORYZA” value was found to be 0%.
